Laboratory results from PubChem BioAssay (NCI).
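Cells were grown in 96-well plates and exposed to each compound for 48 hours at five concentrations; endpoints were interpolated linearly between bracketing concentrations, or set to the highest concentration if not reached. TGI: total growth inhibition.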

Tests used:
Experiment in all cases: NCI-60 cell line screen, 48 h
A498 renal = test system: A498 renal
A549 NSCLC = test system: A549 NSCLC
BT-549 breast = test system: BT-549 breast
CCRF-CEM leukemia = test system: CCRF-CEM leukemia
COLO 205 colon = test system: COLO 205 colon
HS 578T breast = test system: HS 578T breast
IGROV1 ovarian = test system: IGROV1 ovarian
K-562 leukemia = test system: K-562 leukemia
LOX IMVI melanoma = test system: LOX IMVI melanoma
RPMI-8226 leukemia = test system: RPMI-8226 leukemia
TK-10 renal = test system: TK-10 renal

SMILES	TGI (A498 renal) [µM]	TGI (A549 NSCLC) [µM]	TGI (BT-549 breast) [µM]	TGI (CCRF-CEM leukemia) [µM]	TGI (COLO 205 colon) [µM]	TGI (HS 578T breast) [µM]	TGI (IGROV1 ovarian) [µM]	TGI (K-562 leukemia) [µM]	TGI (LOX IMVI melanoma) [µM]	TGI (RPMI-8226 leukemia) [µM]	TGI (TK-10 renal) [µM]
COC(=O)C1=C(C)NC2(C)OC(C)(O)C(C(C)=O)C12C(C)=O (stereo unspecified)	> 100	> 100	> 100	> 100	> 100	65.1	> 100	> 100	> 100	> 100	> 100
O=S(=O)(O)c1ccc(Nc2ccnc3cc(Cl)ccc23)cc1	> 100	> 100	> 100	> 100	> 100	> 100	> 100	> 100	> 100	> 100	> 100
COc1cc2c(cc1O)CC[C@@H]1C2CC[C@@]2(C)C1CC[C@@H]2O (stereo partly specified)	50.4	> 100	> 100	22.3	81.3	7.63	> 100	26.1	> 100	13.5	> 94.1
Cc1cc(C)c2c(c1)CC1(Cc3c(C)cc(C)cc3C1=O)C2=O (stereo unspecified)	> 100	> 100	> 100	> 100	> 100	> 100	> 100	> 100	> 100	> 100	> 100
COc1cc(-c2[o+]c3cc(O)cc(OC4OC(CO)C(O)C(O)C4O)c3cc2OC2OC(CO)C(O)C(O)C2O)cc(OC)c1O (stereo unspecified)	> 100	> 100	> 100	> 100	> 100	> 100	> 100	> 100	> 100	> 100	> 100
C=C1C(=O)O[C@H]2[C@H]([C@H](C)CCCC(C)=O)O[C@H]([C@@]3(C)CCC(=O)O3)C[C@@H]12	> 100	> 100	> 100	83.5	> 100	> 100	> 100	> 100	64.4	> 100	52.3
